In PMC6768771 (Current cancer drug targets, 2019) one finds EC50 data, which are given here for 3 molecules.

What all share (experiment): Cell viability assay
What all share (format): cell-based

The subject of one assay is NCI-H1299 cells. The following applies: Homo sapiens, NCI-H1299, 48 h, read-out: EC50 at 48 h.
In the next assay the test system is NCI-H1563 cells. The following applies: Homo sapiens, NCI-H1563, 48 h, read-out: EC50 at 48 h.
The next assay deals with NCI-H460 cells. The conditions noted are these: Homo sapiens, NCI-H460, 48 h, read-out: EC50 at 48 h.
A further assay concerns NCI-H1573 cells. The conditions noted are these: Homo sapiens, NCI-H1573, 48 h, read-out: EC50 at 48 h.
The test system of another assay is NCI-H661 cells. The following applies: Homo sapiens, NCI-H661, 48 h, read-out: EC50 at 48 h.
A further assay has as its system A549 cells. The following applies: Homo sapiens, A549, 48 h, read-out: EC50 at 48 h.

Bounds are passed on as bounds.

The term EC50 denotes the concentration that produces a half-maximal response. For `CC(=O)O[C@@]12CO[C@@H]1C[C@H](O)[C@@]1(C)C(=O)[C@H](O)C3=C(C)[C@@H](OC(=O)[C@H](O)[C@@H](NC(=O)OC(C)(C)C)c4ccccc4)C[C@@](O)([C@@H](OC(=O)c4ccccc4)[C@H]21)C3(C)C` [Docetaxel], the EC50 is 72 µM in the assay on NCI-H1299 cells; 80 µM in the assay with NCI-H1563 cells; 56 µM with NCI-H460 cells; > 200 µM in the assay with NCI-H1573 cells; > 200 µM in the assay on NCI-H661 cells; > 200 µM in the assay with A549 cells.

Turning to `C#Cc1cccc(Nc2ncnc3cc(OCCOC)c(OCCOC)cc23)c1` [Erlotinib], the EC50 with NCI-H1299 cells, in the assay on NCI-H1563 cells, in the assay on NCI-H460 cells, with NCI-H1573 cells, in the assay on NCI-H661 cells and in the assay with A549 cells was > 200 µM in each case.

For `CC(=O)O[C@H]1C(=O)[C@@]2(C)[C@H]([C@H](OC(=O)c3ccccc3)[C@]3(O)C[C@H](OC(=O)[C@H](O)[C@@H](NC(=O)c4ccccc4)c4ccccc4)C(C)=C1C3(C)C)[C@]1(OC(C)=O)CO[C@@H]1C[C@@H]2O` [Paclitaxel], the half-maximal effective concentration (EC50) with NCI-H1299 cells is 60 µM; in the assay with NCI-H1563 cells it was > 200 µM; with NCI-H460 cells, 26 µM; in the assay on NCI-H1573 cells, > 200 µM; with NCI-H661 cells, 11 µM; in the assay with A549 cells, > 200 µM.
